Measurements: US20200316087A1, “NOVEL COMBINATION THERAPY FOR ANXIETY DISORDERS, EPILEPSY, AND PAIN” (priority 2017, published 2020)
Entries after “also recorded” stand apart in the source; their conditions may differ.

Columns and labels:
[1] = tested on: punished licking (anxiety); assay: Vogel conflict test; format: in vivo; conditions: rats
Protocol: Experiments are conducted as described in the protocol of Alt et al. (Neuropharmacology 2007, 52, 1482-1487). Experimentally-naive adult male Sprague-Dawley rats (Harlan Industries, Indianapolis, Ind.), weighing between 200 and 300 g, are used as subjects. The rats are housed in Plexiglas cages (4 per cage) and given free access to Lab Diet #5001 for rodents (PMI Nutrition International Inc., St. Louis, Mo.). Water is withheld for 20-24 hours prior to the first training session. A 12-hr light/dark cycle is maintained, and all experimental sessions are conducted during the light phase of the cycle at about the same time each day.
The experiments are conducted using operant behavior test chambers ENV-007 (Med Associates Inc., Georgia, Vt., USA), 30.5×24.1×29.2 cm. […] All events are controlled and licking data is recorded by a Compaq computer running MED-PC Version IV (Med Associates Inc., Georgia, Vt., USA).
Rats are put into the chamber on day 1 and 2 with white noise and the houselight illuminated, and allowed to drink for a total of six minutes after the first lick is made. The six minutes is broken into two components, the first three minutes is recorded as the unpunished component and the second three minutes are recorded as the punished component. […]
The mean number of licks for both the unpunished and punished components are analyzed. […]

[2] = tested on: immobility in tail-suspension test; assay: Tail-suspension assay; format: in vivo; conditions: C57Bl/6 mice
Protocol: Male, C57Bl/6 mice (Envigo, Indianapolis, Ind.) were employed in these experiments. Med Associates Inc. (Fairfax, Vt., USA), apparatus SOF-821 was utilized. The TST was an automated version of published methods in which the tail was secured to a lever on the ceiling of the chamber. The duration of immobility was recorded by a force transducer for a period of 10 min.
Imipramine was dissolved in water.

[3] = tested on: resected human cortical tissue from epileptic patients; assay: Human epileptic cerebral cortex slice electrophysiology; format: cell-based; conditions: 30 μM
Protocol: The tissue was prepared and treated as previously described (Zwart et al., J. Pharmacal. Exp. Ther., 2014, 351:124-133). Slices were maintained at 37° C. and were perfused at 1.0 ml/min first with normal ACSF (NACSF) solution for one hour to see if the tissue was spontaneously active. […] Tissue was then recorded in EACSF with a concentration of 10 μM picrotoxin for 1 hr. Subsequently, tissue was recorded in EACSF with a concentration of 10 μM of picrotoxin with 30 μM KRM-II-81 and recorded for 1 hour. Following the KRM-II-81 addition, tissue was recorded in a washout solution of EACSF and 10 μM Picrotoxin for 1 hr. The concentration of KRM-II-81 was based upon data collected in human cortical slices with perampanel and upon the need to be conservative in concentration estimates to maximize the opportunity to see an effect given limited human tissue opportunities. A second experiment was conducted using […] (50 μM) as an activator instead of picrotoxin.
Recordings were performed on microelectrode arrays of 60 electrodes as previously described (Zwart et al., J Pharmacol. Exp. Ther., 2014, 351:124-133). LFPs with sharp negative peaks below a threshold set at 3 standard deviations of the signal were marked, and the time of the maximum excursion was recorded as the time of that LFP. Time points were binned at 4 ms. […]

[4] = tested on: anticonvulsant efficacy; assay: ED50 for anticonvulsant efficacy (model not stated); format: in vivo; conditions: Rattus norvegicus, ip, rats
Source text: (Table 4). Using these unbound drug concentrations, the PI based on drug levels in plasma was 3 and that based upon brain drug levels was 3.8.

[5] = tested on: motor performance; assay: Observed motor effects / overt toxicity 4 hr after oral dosing; format: in vivo; conditions: for Observation (motor effects) / Number with observed motor effects: 4 hr post dosing, mice
Source text: This seizure model is utilized to screen for drugs that might […] by other screening approaches. For example, the highly used anticonvulsant leviteracetam was effective in this test but not in the pentylenetetrazole assay. Adult, male mice were subjected to 6 Hz stimulation at 44 mA as originally described by Barton et al. (Epilepsy Res. 2001; 47:217-27) and conducted per protocol of the NTH Anticonvulsant Screening Program (available online from the National Institute of Neurological Disorders and Stroke—6 Hz 44 mA Psychomotor Seizure Model, Mouse). Briefly, a mouse was dosed with KRM-II-81, p.o., and 2 hr later given 6 Hz stimulation for 3 sec delivered through corneal electrodes at 44 mA and observed for the presence or absence of seizure activity. A separate group of mice was dosed with higher doses of KRM-II-81 and observed for potential deficits in motor performance and overt signs of toxicity at 4 hr post dosing.

Compound	anxiolytic-like efficacy in Vogel conflict test [1]	immobility in tail-suspension test ([2]; i.p., 100 mg/kg significantly greater than vehicle, 100 mg/kg)	sedation-like effects ([2]; higher doses tested)	firing rate ([3]; firing stimulated with AP-4 (50 μM), baseline 0.08±0.01) [Hz]	average firing rate ([3]; in presence of 10 μM picrotoxin, baseline 0.05±0.01 Hz) [Hz]	ED50 [4] [mg/kg]	loss of righting (mice affected) ([5]; 150 mg/kg p.o.)	loss of righting (mice affected) ([5]; 200 mg/kg p.o.)	more severe tremor (mice affected) ([5]; 200 mg/kg p.o.)	Observation (motor effects) ([5]; dose 100 mg/kg, p.o.)	Number with observed motor effects ([5]; dose 50, p.o.)	Number with observed motor effects ([5]; dose 100, p.o.)	Number with observed motor effects ([5]; dose 150, p.o.)	Observation (motor effects) ([5]; dose 150, p.o.)	Number with observed motor effects ([5]; dose 200, p.o.)	Observation (motor effects) ([5]; dose 200, p.o.)
C#Cc1ccc2c(c1)C(c1ccccc1)=NCc1c(-c3cnco3)ncn1-2 [KRM-II-82, 5-(8-ethynyl-6-phenyl-4H-benzo[f]imidazo[1,5-a][1,4]diazepin-3-yl)oxazole]	did not produce anxiolytic-like efficacy	–	–	–	–	–	–	–	–	–	–	–	–	–	–	–
C#Cc1ccc2c(c1)C(c1ccccn1)=NCc1c(-c3cnco3)ncn1-2 [KRM-II-81, 5-(8-ethynyl-6-(pyridin-2-yl)-4H-benzo[f]imidazo[1,5-a][1,4]diazepin-3-yl)oxazole]	–	slight increase in immobility at the higher doses tested; also recorded: not active	moderate sedation-like effects	0.01±0.005	0.01±0.005	17.3	1/8	1/8	1/8	Mild tremor; also recorded: tremors	0/8	3/8	5/8	tremor, unable to grasp	8/8	more severe tremor'; also recorded: loss of righting
